ChEMBL document CHEMBL1201862, “PubChem BioAssay data set” (2004)
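Five compound concentrations were applied to cells in 96-well plates for 48 hours; endpoints were derived by simple linear interpolation of the resulting dose-response curve. GI50 marks 50% less growth.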 Calls of active or inactive are those of the source. Rule as the data show it: active = GI50 up to about 1.1 µM and inactive = higher.

Legend:
Test in all cases: NCI tumour cell line growth inhibition, 48 h
[1] = test system: 786-0
[2] = test system: A498
[3] = test system: A549
[4] = test system: ACHN
[5] = test system: CAKI-1
[6] = test system: CCRF-CEM
[7] = test system: COLO 205
[8] = test system: DLD-1
[9] = test system: DMS-114
[10] = test system: DMS-273
[11] = test system: EKVX
[12] = test system: HCC 2998
[13] = test system: HCT-116
[14] = test system: HCT-15
[15] = test system: HOP-62
[16] = test system: HT-29
[17] = test system: IGROV-1
[18] = test system: K562
[19] = test system: KM-20L2
[20] = test system: KM12
[21] = test system: LOX IMVI
[22] = test system: LXFL 529
[23] = test system: M14
[24] = test system: M19-MEL
[25] = test system: MOLT-4
[26] = test system: Malme-3M
[27] = test system: NCI-H226
[28] = test system: NCI-H23
[29] = test system: NCI-H460
[30] = test system: NCI-H522
[31] = test system: OVCAR-3
[32] = test system: OVCAR-4
[33] = test system: OVCAR-5
[34] = test system: OVCAR-8
[35] = test system: RPMI-8226
[36] = test system: RXF 393
[37] = test system: RXF 631
[38] = test system: SF-268
[39] = test system: SF-295
[40] = test system: SF-539
[41] = test system: SK-MEL-28
[42] = test system: SK-MEL-2
[43] = test system: SK-MEL-5
[44] = test system: SK-OV-3
[45] = test system: SN12C
[46] = test system: SNB-19
[47] = test system: SNB-75
[48] = test system: SNB-78
[49] = test system: SW-620
[50] = test system: TK-10
[51] = test system: U-251
[52] = test system: UACC-257
[53] = test system: UACC-62
[54] = test system: UO-31
[55] = test system: XF498
[56] = test system: DU-145
[57] = test system: HL-60
[58] = test system: HOP-18
[59] = test system: HOP-92
[60] = test system: SR

Measured: GI50

NC(N)NCCCc1cn2c(n1)C1CCCN1C(=O)C2Cc1ccccc1 (configuration not stated)
inactive: [1] > 100 µM | [2] > 100 µM | [3] > 100 µM | [4] > 100 µM | [5] > 100 µM | [6] > 100 µM | [7] > 100 µM | [8] > 100 µM | [9] > 100 µM | [10] > 100 µM | [11] > 100 µM | [12] > 100 µM | [13] > 100 µM | [15] > 100 µM | [16] > 100 µM | [17] > 100 µM | [18] > 100 µM | [19] > 100 µM | [20] > 100 µM | [21] > 100 µM | [22] > 100 µM | [23] > 100 µM | [24] > 100 µM | [25] > 100 µM | [26] > 100 µM | [27] > 100 µM | [28] > 100 µM | [29] > 100 µM | [30] > 100 µM | [31] > 100 µM | [32] > 100 µM | [33] > 100 µM | [34] > 100 µM | [35] > 100 µM | [36] > 100 µM | [37] > 100 µM | [38] > 100 µM | [39] > 100 µM | [40] > 100 µM | [41] > 100 µM | [42] > 100 µM | [43] > 100 µM | [44] > 100 µM | [45] > 100 µM | [46] > 100 µM | [47] 61 µM | [48] > 100 µM | [49] > 100 µM | [50] > 100 µM | [51] > 100 µM | [52] > 100 µM | [53] > 100 µM | [54] > 100 µM | [55] > 100 µM
> 100 µM: [14]

C=C=C(Sc1ccccc1)C(C)(C)O
active: [30] 0.399 µM
> 100 µM: [14]
inactive: [1] > 100 µM | [2] > 100 µM | [4] > 100 µM | [6] > 100 µM | [7] > 100 µM | [8] > 100 µM | [56] > 100 µM | [12] > 100 µM | [13] > 100 µM | [57] > 100 µM | [58] > 100 µM | [59] > 100 µM | [16] > 100 µM | [17] > 100 µM | [18] > 100 µM | [19] > 100 µM | [20] > 100 µM | [21] > 100 µM | [22] > 100 µM | [23] > 100 µM | [24] > 100 µM | [25] > 100 µM | [26] > 100 µM | [27] > 100 µM | [28] > 100 µM | [29] > 100 µM | [31] > 100 µM | [32] > 100 µM | [33] > 100 µM | [34] > 100 µM | [35] > 100 µM | [36] > 100 µM | [37] > 100 µM | [38] > 100 µM | [39] > 100 µM | [40] > 100 µM | [41] > 100 µM | [42] > 100 µM | [44] > 100 µM | [45] > 100 µM | [46] > 100 µM | [47] 38.6 µM | [60] > 100 µM | [49] > 100 µM | [50] > 100 µM | [51] > 100 µM | [52] > 100 µM | [53] > 100 µM | [54] > 100 µM | [55] > 100 µM

O=C(Cc1ccccc1)N/N=C(/c1nc2ccc([N+](=O)[O-])cc2nc1O)C(O)c1ccc(C(O)/C(=N/NC(=O)Cc2ccccc2)c2nc3ccc([N+](=O)[O-])cc3nc2O)cc1 (configuration not stated)
inactive: [1] > 100 µM | [2] > 100 µM | [3] 50.9 µM | [4] 35.2 µM | [5] 40.1 µM | [6] 7.26 µM | [7] 37.5 µM | [8] 56.8 µM | [9] 4.29 µM | [11] > 100 µM | [12] 27 µM | [13] 48.8 µM | [57] 7.01 µM | [15] 44.6 µM | [59] > 100 µM | [16] 53.8 µM | [17] > 100 µM | [18] 12.4 µM | [19] 12.4 µM | [21] 12.1 µM | [22] 24.7 µM | [23] 40.6 µM | [24] 58.9 µM | [26] > 100 µM | [27] > 100 µM | [28] > 100 µM | [30] 3.3 µM | [31] 20.7 µM | [32] > 100 µM | [33] 40.4 µM | [34] 80.4 µM | [35] 21 µM | [36] > 100 µM | [37] 51.3 µM | [38] 20.2 µM | [39] 44.9 µM | [40] 56.8 µM | [41] > 100 µM | [42] 40 µM | [44] > 100 µM | [45] > 100 µM | [46] > 100 µM | [47] 31.3 µM | [60] > 10 µM | [49] 39.4 µM | [50] 48.1 µM | [52] 62.4 µM | [53] 35.6 µM | [55] 29.8 µM
19.4 µM: [14]
